Measurements published in patent US12065436B2, “Cardiac sarcomere inhibitors” (Cytokinetics, Inc., priority 2018, dated 2024).

Target: bovine cardiac myofibrils (full-length cardiac myosin ATPase in the native sarcomere) (Bos taurus (Bovine), UniProt Q9BE39)
Test: Skinned bovine cardiac myofibril ATPase assay (PK/LDH-coupled)
Type: biochemical
Conditions: Ca2+ activating to 75% of maximal rate; for CDMF75 IC15: concentration giving 15% inhibition; for IC50: read-out: CDMF75 IC50
Outline: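 Triton-skinned bovine left-ventricle myofibrils (1 mg/mL) in PM 12 buffer (12 mM PIPES, 2 mM MgCl2, pH 6.8) with 50 μM ATP, 0.6 mM EGTA and CaCl2 set for 50% or 75% activation. Steady-state ATPase inhibition followed by PK/LDH-coupled NADH oxidation at 340 nm.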

Sequence of bovine cardiac myofibrils (full-length cardiac myosin ATPase in the native sarcomere) (Q9BE39 whole entry): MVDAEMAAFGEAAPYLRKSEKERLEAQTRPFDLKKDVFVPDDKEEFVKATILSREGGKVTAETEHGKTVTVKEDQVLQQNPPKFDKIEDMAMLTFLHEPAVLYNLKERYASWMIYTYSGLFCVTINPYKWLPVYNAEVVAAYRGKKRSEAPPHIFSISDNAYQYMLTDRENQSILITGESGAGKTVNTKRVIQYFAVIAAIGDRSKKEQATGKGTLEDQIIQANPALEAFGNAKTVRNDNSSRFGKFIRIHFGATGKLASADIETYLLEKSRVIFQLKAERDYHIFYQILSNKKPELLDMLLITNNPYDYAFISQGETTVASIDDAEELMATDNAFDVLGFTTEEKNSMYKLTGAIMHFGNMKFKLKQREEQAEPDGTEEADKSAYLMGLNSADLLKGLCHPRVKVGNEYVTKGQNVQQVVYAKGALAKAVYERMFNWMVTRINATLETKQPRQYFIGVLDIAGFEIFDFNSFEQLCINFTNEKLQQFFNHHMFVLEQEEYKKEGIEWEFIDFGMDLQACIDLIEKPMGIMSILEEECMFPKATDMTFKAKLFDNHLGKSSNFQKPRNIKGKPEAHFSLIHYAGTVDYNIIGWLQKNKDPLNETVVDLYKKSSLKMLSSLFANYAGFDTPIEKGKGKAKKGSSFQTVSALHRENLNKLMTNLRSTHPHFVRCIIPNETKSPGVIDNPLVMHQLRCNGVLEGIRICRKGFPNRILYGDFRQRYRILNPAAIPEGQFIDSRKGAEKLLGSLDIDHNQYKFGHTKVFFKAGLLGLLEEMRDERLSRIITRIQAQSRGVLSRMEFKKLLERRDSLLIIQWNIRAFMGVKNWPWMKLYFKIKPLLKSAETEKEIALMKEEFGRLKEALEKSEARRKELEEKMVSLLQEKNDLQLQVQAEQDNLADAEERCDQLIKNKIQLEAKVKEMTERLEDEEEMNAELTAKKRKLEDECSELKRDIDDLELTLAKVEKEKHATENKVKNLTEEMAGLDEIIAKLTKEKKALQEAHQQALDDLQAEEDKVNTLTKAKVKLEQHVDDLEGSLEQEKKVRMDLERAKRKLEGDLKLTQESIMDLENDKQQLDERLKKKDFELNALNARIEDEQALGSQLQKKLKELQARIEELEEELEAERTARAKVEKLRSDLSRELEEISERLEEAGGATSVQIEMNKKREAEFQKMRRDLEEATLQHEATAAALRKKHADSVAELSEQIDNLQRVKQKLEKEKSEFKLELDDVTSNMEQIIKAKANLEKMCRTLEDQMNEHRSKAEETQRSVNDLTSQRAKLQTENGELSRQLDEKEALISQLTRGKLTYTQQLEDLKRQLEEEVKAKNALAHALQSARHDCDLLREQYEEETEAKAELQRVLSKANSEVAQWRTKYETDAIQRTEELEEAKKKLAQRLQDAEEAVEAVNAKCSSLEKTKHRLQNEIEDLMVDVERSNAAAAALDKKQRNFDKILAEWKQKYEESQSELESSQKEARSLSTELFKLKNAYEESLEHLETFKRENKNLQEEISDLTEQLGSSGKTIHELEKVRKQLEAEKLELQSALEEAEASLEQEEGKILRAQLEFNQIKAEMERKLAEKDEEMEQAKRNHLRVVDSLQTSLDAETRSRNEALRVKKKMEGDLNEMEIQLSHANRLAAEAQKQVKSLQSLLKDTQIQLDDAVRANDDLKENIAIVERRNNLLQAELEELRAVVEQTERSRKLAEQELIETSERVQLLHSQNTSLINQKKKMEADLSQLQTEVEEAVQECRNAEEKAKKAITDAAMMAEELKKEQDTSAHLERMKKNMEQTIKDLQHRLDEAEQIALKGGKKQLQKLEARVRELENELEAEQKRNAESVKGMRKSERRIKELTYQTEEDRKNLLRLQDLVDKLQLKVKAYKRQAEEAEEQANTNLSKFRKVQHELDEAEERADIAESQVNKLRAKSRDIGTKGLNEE
Sequence of bovine cardiac myofibrils (full-length cardiac myosin ATPase in the native sarcomere) (P85100 whole entry partner): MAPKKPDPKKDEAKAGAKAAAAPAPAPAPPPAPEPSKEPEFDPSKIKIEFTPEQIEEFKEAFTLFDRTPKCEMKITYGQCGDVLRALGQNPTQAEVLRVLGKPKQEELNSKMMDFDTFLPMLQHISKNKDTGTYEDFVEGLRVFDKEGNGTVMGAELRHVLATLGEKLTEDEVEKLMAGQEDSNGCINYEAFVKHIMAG
Sequence of bovine cardiac myofibrils (full-length cardiac myosin ATPase in the native sarcomere) (Q3SZE5 whole entry partner): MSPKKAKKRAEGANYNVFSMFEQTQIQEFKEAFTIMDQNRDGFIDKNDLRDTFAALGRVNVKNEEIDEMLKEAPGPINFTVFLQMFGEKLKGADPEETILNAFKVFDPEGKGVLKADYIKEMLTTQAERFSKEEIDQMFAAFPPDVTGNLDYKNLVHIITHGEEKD

CDMF75 IC15 | IC50 | SMILES
0.5 µM | 1.8 µM | Cc1cc(C(=O)N[C@@H]2CCc3cc(-c4cc(C(F)F)on4)ccc32)ccn1 [Compound 169, (R)-N-(5-(5-(difluoromethyl)isoxazol-3-yl)-2,3-dihydro-1H-inden-1-yl)-2-methylisonicotinamide]
3.8 µM | 15.9 µM | Cc1cc(C(=O)NC2CCc3cc(-c4cc(C(F)F)no4)ccc32)ccn1 (centres unmarked) [Compound 170, N-(5-(3-(difluoromethyl)isoxazol-5-yl)-2,3-dihydro-1H-inden-1-yl)-2-methylisonicotinamide]
1.7 µM | 6.9 µM | Cc1cc(C(=O)N[C@@H]2CCc3cc(-c4cc(C(F)F)no4)ccc32)ccn1 [Compound 171, (R)-N-(5-(3-(difluoromethyl)isoxazol-5-yl)-2,3-dihydro-1H-inden-1-yl)-2-methylisonicotinamide]
8.1 µM | > 39.2 µM | Cc1cc(C(=O)N[C@@H]2CCc3cc(-c4nc(C)co4)ccc32)ccn1 [Compound 172, (R)-2-methyl-N-(5-(4-methyloxazol-2-yl)-2,3-dihydro-1H-inden-1-yl)isonicotinamide]
39.2 µM | > 39.2 µM | Cc1cc(C(=O)NC2CCc3cc(-c4nc(C)co4)ccc32)ccn1 (centres unmarked) [Compound 173, 2-methyl-N-(5-(4-methyloxazol-2-yl)-2,3-dihydro-1H-inden-1-yl)isonicotinamide]
1.1 µM | 3.8 µM | Cn1nccc1C(=O)N[C@@H]1CCc2cc(-c3noc(C4CCO4)n3)ccc21 (stereo partly drawn) [Compound 174, 1-methyl-N-((1R)-5-(5-(oxetan-2-yl)-1,2,4-oxadiazol-3-yl)-2,3-dihydro-1H-inden-1-yl)-1H-pyrazole-5-carboxamide]
0.4 µM | 1.4 µM | COCc1nc(-c2ccc3c(c2)CC[C@H]3NC(=O)c2ccnn2C)no1 [Compound 175, (R)-N-(5-(5-(methoxymethyl)-1,2,4-oxadiazol-3-yl)-2,3-dihydro-1H-inden-1-yl)-1-methyl-1H-pyrazole-5-carboxamide]
1.2 µM | 4.5 µM | COCc1nc(-c2ccc3c(c2)CC[C@H]3NC(=O)c2ccnc(C)c2)no1 [Compound 176, (R)-N-(5-(5-(methoxymethyl)-1,2,4-oxadiazol-3-yl)-2,3-dihydro-1H-inden-1-yl)-2-methylisonicotinamide]
0.5 µM | 1.8 µM | COCc1nc(-c2ccc3c(c2)CC[C@H]3NC(=O)c2ocnc2C)no1 [Compound 177, (R)-N-(5-(5-(methoxymethyl)-1,2,4-oxadiazol-3-yl)-2,3-dihydro-1H-inden-1-yl)-4-methyloxazole-5-carboxamide]
1.9 µM | 6.8 µM | COCc1nc(-c2ccc3c(c2)CC[C@H]3NC(=O)c2cnn(C)c2)no1 [Compound 178, (R)-N-(5-(5-(methoxymethyl)-1,2,4-oxadiazol-3-yl)-2,3-dihydro-1H-inden-1-yl)-1-methyl-1H-pyrazole-4-carboxamide]
0.7 µM | 2.2 µM | COCc1nc(-c2ccc3c(c2)CC[C@H]3NC(=O)c2cc(C)nn2C)no1 [Compound 179, (R)-N-(5-(5-(methoxymethyl)-1,2,4-oxadiazol-3-yl)-2,3-dihydro-1H-inden-1-yl)-1,3-dimethyl-1H-pyrazole-5-carboxamide]
1.7 µM | 5.8 µM | COCc1nc(-c2ccc3c(c2)CC[C@H]3NC(=O)c2oc(C)nc2C)no1 [Compound 180, (R)-N-(5-(5-(methoxymethyl)-1,2,4-oxadiazol-3-yl)-2,3-dihydro-1H-inden-1-yl)-2,4-dimethyloxazole-5-carboxamide]
1.1 µM | 4 µM | COCc1nc(-c2ccc3c(c2)CC[C@H]3NC(=O)c2cnn(C)c2C)no1 [Compound 181, (R)-N-(5-(5-(methoxymethyl)-1,2,4-oxadiazol-3-yl)-2,3-dihydro-1H-inden-1-yl)-1,5-dimethyl-1H-pyrazole-4-carboxamide]
1.0 µM | 4.1 µM | COCc1nc(-c2ccc3c(c2)CC[C@H]3NC(=O)c2cn(C)nc2C)no1 [Compound 182, (R)-N-(5-(5-(methoxymethyl)-1,2,4-oxadiazol-3-yl)-2,3-dihydro-1H-inden-1-yl)-1,3-dimethyl-1H-pyrazole-4-carboxamide]
0.8 µM | 2.7 µM | Cn1cc(C(=O)N[C@@H]2CCc3cc(-c4noc(C5CC5)n4)ccc32)cn1 [Compound 185, (R)-N-(5-(5-cyclopropyl-1,2,4-oxadiazol-3-yl)-2,3-dihydro-1H-inden-1-yl)-1-methyl-1H-pyrazole-4-carboxamide]
0.7 µM | 2.4 µM | Cn1cc(C(=O)N[C@@H]2CCc3cc(-c4noc(C(F)F)n4)ccc32)cn1 [Compound 186, (R)-N-(5-(5-(difluoromethyl)-1,2,4-oxadiazol-3-yl)-2,3-dihydro-1H-inden-1-yl)-1-methyl-1H-pyrazole-4-carboxamide]

CDMF75 IC15 | IC50 | SMILES
11.5 µM | > 39.2 µM | Cc1cc(C(=O)NC2COc3cc(-c4noc(C)n4)cnc32)ccn1 (centres unmarked) [Compound 187, 2-methyl-N-(6-(5-methyl-1,2,4-oxadiazol-3-yl)-2,3-dihydrofuro[3,2-b]pyridin-3-yl)isonicotinamide]
5.3 µM | 23.6 µM | Cc1cc(C(=O)N[C@@H]2COc3cc(-c4noc(C)n4)cnc32)ccn1 [Compound 188, (S)-2-methyl-N-(6-(5-methyl-1,2,4-oxadiazol-3-yl)-2,3-dihydrofuro[3,2-b]pyridin-3-yl)isonicotinamide]
1.4 µM | 5.1 µM | Cn1nnnc1C(=O)N[C@@H]1CCc2cc(-c3noc(C(F)F)n3)ccc21 [Compound 189, (R)-N-(5-(5-(difluoromethyl)-1,2,4-oxadiazol-3-yl)-2,3-dihydro-1H-inden-1-yl)-1-methyl-1H-tetrazole-5-carboxamide]
0.6 µM | 2 µM | Cc1cc(C(=O)NC2COc3cc(-c4noc(C(F)F)n4)ccc32)n(C)n1 (centres unmarked) [Compound 190, N-(6-(5-(difluoromethyl)-1,2,4-oxadiazol-3-yl)-2,3-dihydrobenzofuran-3-yl)-1,3-dimethyl-1H-pyrazole-5-carboxamide]
0.3 µM | 0.9 µM | Cc1cc(C(=O)N[C@@H]2COc3cc(-c4noc(C(F)F)n4)ccc32)n(C)n1 [Compound 191, (S)-N-(6-(5-(difluoromethyl)-1,2,4-oxadiazol-3-yl)-2,3-dihydrobenzofuran-3-yl)-1,3-dimethyl-1H-pyrazole-5-carboxamide]
1.0 µM | 3.8 µM | Cc1nc(C)c(C(=O)NC2COc3cc(-c4noc(C(F)F)n4)ccc32)o1 (centres unmarked) [Compound 192, N-(6-(5-(difluoromethyl)-1,2,4-oxadiazol-3-yl)-2,3-dihydrobenzofuran-3-yl)-2,4-dimethyloxazole-5-carboxamide]
0.5 µM | 2.1 µM | Cc1nc(C)c(C(=O)N[C@@H]2COc3cc(-c4noc(C(F)F)n4)ccc32)o1 [Compound 193, (S)-N-(6-(5-(difluoromethyl)-1,2,4-oxadiazol-3-yl)-2,3-dihydrobenzofuran-3-yl)-2,4-dimethyloxazole-5-carboxamide]
0.7 µM | 2.6 µM | Cc1cc(C(=O)N[C@@H]2CCc3cc(-c4nc(C)no4)ccc32)n(C)n1 [Compound 194, (R)-1,3-dimethyl-N-(5-(3-methyl-1,2,4-oxadiazol-5-yl)-2,3-dihydro-1H-inden-1-yl)-1H-pyrazole-5-carboxamide]
10.1 µM | > 39.2 µM | Cc1cc(C(=O)NC2COc3cc(-c4noc(C(F)F)n4)cnc32)ccn1 (centres unmarked) [Compound 195, N-(6-(5-(difluoromethyl)-1,2,4-oxadiazol-3-yl)-2,3-dihydrofuro[3,2-b]pyridin-3-yl)-2-methylisonicotinamide]
4.5 µM | 17.4 µM | Cc1cc(C(=O)N[C@@H]2COc3cc(-c4noc(C(F)F)n4)cnc32)ccn1 [Compound 196, (S)—N-(6-(5-(difluoromethyl)-1,2,4-oxadiazol-3-yl)-2,3-dihydrofuro[3,2-b]pyridin-3-yl)-2-methylisonicotinamide]
3.2 µM | 12.4 µM | Cn1nnc(C(=O)NC2COc3cc(-c4noc(C(F)F)n4)ccc32)n1 (centres unmarked) [Compound 197, N-(6-(5-(difluoromethyl)-1,2,4-oxadiazol-3-yl)-2,3-dihydrobenzofuran-3-yl)-2-methyl-2H-tetrazole-5-carboxamide]
2.0 µM | 7.2 µM | Cn1nnc(C(=O)N[C@@H]2COc3cc(-c4noc(C(F)F)n4)ccc32)n1 [Compound 198, (S)-N-(6-(5-(difluoromethyl)-1,2,4-oxadiazol-3-yl)-2,3-dihydrobenzofuran-3-yl)-2-methyl-2H-tetrazole-5-carboxamide]
6.0 µM | 24.1 µM | Cc1nc(-c2ccc3c(c2)OCC3NC(=O)c2nnn(C)n2)no1 (centres unmarked) [Compound 199, 2-methyl-N-(6-(5-methyl-1,2,4-oxadiazol-3-yl)-2,3-dihydrobenzofuran-3-yl)-2H-tetrazole-5-carboxamide]
2.6 µM | 11.3 µM | Cc1nc(-c2ccc3c(c2)OC[C@H]3NC(=O)c2nnn(C)n2)no1 [Compound 200, (S)-2-methyl-N-(6-(5-methyl-1,2,4-oxadiazol-3-yl)-2,3-dihydrobenzofuran-3-yl)-2H-tetrazole-5-carboxamide]
1.4 µM | 5.4 µM | Cc1noc(-c2ccc3c(c2)CC[C@H]3NC(=O)c2cn(C)nc2C)n1 [Compound 201, (R)-1,3-dimethyl-N-(5-(3-methyl-1,2,4-oxadiazol-5-yl)-2,3-dihydro-1H-inden-1-yl)-1H-pyrazole-4-carboxamide]
